Source: US20140363830A1, “COMPOUNDS THAT MODULATE HSP90 ACTIVITY AND METHODS FOR IDENTIFYING SAME” (SYNTA PHARMACEUTICALS CORP., priority 2006, published 2014)

Assays:
c-kit [1] = experiment: Western blot analysis of c-Kit in Kasumi-1 cells; type: cell-based
Text: The results of the FACS analysis were confirmed with Western blot analysis (see FIG. 5). […] In contrast, 17-AAG had no effect of c-Kit protein levels.

[2] = tested on: RERF-LC-AI^IVP human lung tumor cells; experiment: RERF-LC-AI^IVP nude mouse xenograft model; type: in vivo
Protocol: The human squamous non-small cell lung cancer cell line, RERF-LC-AI (RCB0444; S. Kyoizumi, et al., Cancer. Res. 45:3274-3281, 1985), was obtained from the Riken Cell Bank (Tsukuba, Ibaraki, Japan). […] FBS was obtained from American Type Culture Collection (Manassas, Va., USA) and all other reagents were obtained from Invitrogen Corp. (Carlsbad, Calif., USA). Approximately 4-5×10(6) cells that had been cryopreserved in liquid nitrogen were rapidly thawed at 37° C. and transferred to a 175 cm^2 tissue culture flask containing 50 ml of growth media and then incubated at 37° C. in a 5% CO2 incubator.
(§1) The growth media was replaced every 2-3 days until the flask became 90% confluent, typically in 5-7 days. To passage and expand the cell line, a 90% confluent flask was washed with 10 ml of room temperature phosphate buffered saline (PBS) and the cells were disassociated by adding 5 ml 1× trypsin-EDTA (Invitrogen) and incubating at 37° C. until the cells detached from the surface of the flask. To inactivate the trypsin, 5 ml of growth media was added and then the contents of the flask were centrifuged to pellet the cells. The supernatant was aspirated and the cell pellet was resuspended in 10 ml of growth media and the cell number determined using a hemocytometer. Approximately 1−3×10(6) cells per flask were seeded into 175 cm^2 flasks containing 50 ml of growth media and incubated at 37° C. in a 5% CO2 incubator. When the flasks reached 90% confluence, the above passaging process was repeated until sufficient cells had been obtained for implantation into mice.
Seven to eight week old, female Crl:CD-1-nuBR (nude) mice were obtained from Charles River Laboratories (Wilmington, Mass., USA) Animals were housed 4-5/cage in micro-isolators, with a 12 hr/12 hr light/dark cycle, acclimated for at least 1 week prior to use and fed normal laboratory chow ad libitum. Studies were conducted on animals between 8 and 12 weeks of age at implantation. […] Using a 27 gauge needle and 1 cc syringe, 0.1 ml of the cell suspension was injected subcutaneously into the flank of each nude mouse. Tumor volumes (V) were calculated by caliper measurement of the width (W), length (L) and thickness (T) of tumors using the following formula: V=0.5236×(L×W×T).
In vivo passaged RERF-LC-AI tumor cells (RERF-LC-AI^IVP) were isolated to improve the rate of tumor implantation relative to the parental cell line in nude mice. RERF-LC-AI tumors were permitted to develop in vivo until they reached approximately 250 mm^3 in volume, which required approximately 3 weeks following implantation. Mice were euthanized via CO2 asphyxiation and their exteriors sterilized with 70% ethanol in a laminar flow hood. Using sterile technique, tumors were excised and diced in 50 ml PBS using a scalpel blade. A single cell suspension was prepared using a 55 ml Wheaton Safe-Grind tissue grinder (catalog #62400-358; VWR International, West Chester, Pa., USA) by plunging the pestle up and down 4-5 times without twisting. The suspension was strained through a […] nylon cell strainer and then centrifuged to pellet the cells. The resulting pellet was resuspended in 0.1 M NH4Cl to lyse contaminating red blood cells and then immediately centrifuged to pellet the cells. The cell pellet was resuspended in growth media and seeded into 175 cm^2 flasks containing 50 ml of growth media at 1-3 tumors/flask or approximately 10×10(6) cells/flask. […]

c-kit [3] = experiment: FACS-based c-kit degradation assay in Kasumi-1 cells; type: cell-based; conditions: about 18 h
Protocol: (§2) Two leukemia cell lines, HEL92.1.7 and Kasumi-1, were used for testing c-kit degradation induced by Hsp90 inhibitors of the invention. […] The cells were collected and centrifuged (SORVALL RT 6000D) at 1200 rpm for 5 min. The supernatants were discarded, and the cells were washed one time with 1×PBS. After centrifugation the cells were stained with FITC conjugated c-kit antibody (MBL International, Cat #K0105-4) in 100 ml 1×PBS at 4° C. for 1 h. The samples were read and analysized with FACSCalibur flow cytometer (Becton Dicknson).

c-kit [4] = experiment: FACS-based c-kit degradation assay in HEL92.1.7 cells; type: cell-based; conditions: about 18 h
Protocol: as §2

Her2 = experiment: Degradation of Her2 in BT-474 cells (Western blot); type: cell-based, Human; conditions: for Her2 degradation: overnight
Protocol: Human high-Her2 breast carcinoma BT474 (HTB-20), SK-BR-3 (HTB-30) and MCF-7 breast carcinoma (HTB-22) from American Type Culture Collection, VA, USA were grown in Dulbecco's modified Eagle's medium with 4 mM L-glutamine and antibiotics (100 IU/ml penicillin and 100 ug/ml streptomycine; GibcoBRL). To obtain exponential cell growth, cells were trypsinized, counted and seeded at a cell density of 0.5×10^6 cells/ml regularly, every 3 days. All experiments were performed on day 1 after cell passage.
After treatment, each cytoplasmic sample was prepared from 1×10^6 cells by incubation of cell lysis buffer (#9803, cell Signaling Technology) on ice for 10 minutes. The resulting supernatant used as the cytosol fractions were dissolved with sample buffer for SDS-PAGE and run on a SDS-PAGE gel, blotted onto a nitrocellulose membrane by using semi-dry transfer. Non-specific binding to nitrocellulose was blocked with 5% skim milk in TBS with 0.5% Tween at room temperature for 1 hour, then probed with anti-Her2/ErB2 mAb (rabbit IgG, #2242, Cell Signaling) and anti-Tubulin (T9026, Sigma) as housekeeping control protein. HRP-conjugated goat antirabbit IgG (H+L) and HRP-conjugated horse antimouse IgG (H+L) were used as secondary Ab (#7074, #7076, Cell Signaling) and LumiGLO reagent, 20× Peroxide (#7003, Cell Signaling) was used for visualization.

[5] = tested on: human tumor cell line MDA-MB-435S; experiment: MDA-MB-435S nude mouse xenograft model; type: in vivo; conditions: 300 mg/kg body weight IP, 5 days per week for 3 weeks
Protocol: as §1, with “FBS was obtained from Sigma-Aldrich Corp. (St. Louis, Mo., USA), and all other reagents were obtained from Invitrogen Corp. (Carlsbad, Calif., USA). Approximately 4-5×10(6) cells that had been cryopreserved in liquid nitrogen were rapidly thawed at 37° C. and transferred to a 175 cm^2 tissue culture flask containing 50 ml of growth media and then incubated at 37° C. in a 5% CO2 incubator. The growth” for “The growth”, “ml 1× Trypsin-EDTA (Invitrogen) and” for “ml 1× trypsin-EDTA (Invitrogen) and”, “hemocytometer. Approximately 1-3×10(6) cells per” for “hemocytometer. Approximately 1−3×10(6) cells per”
Six to eight week old, female Crl:CD-1-nuBR (nude) mice were obtained from Charles River Laboratories (Wilmington, Mass., USA) Animals were housed 4-5/cage in micro-isolators, with a 12 hr/12 hr light/dark cycle, acclimated for at least 1 week prior to use and fed normal laboratory chow ad libitum. Studies were conducted on animals between 7 and 12 weeks of age at implantation. […] Tumor volumes (V) were calculated by caliper measurement of the width (W), length (L) and thickness (T) of tumors using the following formula: V=[…]×(L×W×T) Animals were randomized into treatment groups so that the average tumor volumes of each group were similar at the start of dosing. […]

Hsp90 protein = experiment: Malachite Green assay of ATPase activity of Hsp90 protein; type: biochemical; conditions: 37° C., 4 hours
Protocol: Hsp90 protein was obtained from Stressgen (Cat#SPP-770). Assay buffer: 100 mM Tris-HCl, Ph7.4, 20 mM KCl, 6 mM MgCl2. […] Malachite green reagent was added to the reaction. […] The plate was read by an ELISA reader with an absorbance at 620 nm.

[6] = 200 mg/kg body weight i.p., 5 days per week, 15 doses

Compound | c-kit degradation (c-kit [3]; 0.5 μM) | c-kit degradation (c-kit [4]; 0.5 μM) | Her2 degradation (Her2; 0.5 μM) | Her2 degradation (Her2; 2 μM) | Her2 degradation (Her2; 5 μM) | c-kit degradation (c-kit [3]; 0.05 μM) | c-kit degradation (c-kit [4]; 0.05 μM) | also measured
C=CCNC1=C2C[C@@H](C)C[C@H](OC)[C@H](O)[C@@H](C)/C=C(\C)[C@H](OC(N)=O)[C@@H](OC)/C=C\C=C(/C)C(=O)NC(=CC1=O)C2=O [Compound 17-AAG, 17-allylamino-17-demethoxygeldanamycin, reference compound] | could not induce c-kit degradation | could not induce c-kit degradation |  |  |  |  |  | c-Kit protein levels (Western blot) (c-kit [1]; concentration not given): had no effect; growth rate of RERF-LC-AI^IVP human lung tumor cells in nude mice ([2]; 75 mg/kg body weight i.p., 5 days per week, 15 doses): decreased the growth rate; maximum tolerated dose in nude mice ([2]; i.p., 5 times per week): ~75 mg/kg body weight
CCc1cc(-c2nnc(S)n2-c2cccc3ccccc23)c(O)cc1O [Compound 49, 3-(2,4-Dihydroxy-5-ethyl-phenyl)-4-(naphthalen-1-yl)-5-mercapto-[1,2,4]triazole] |  |  | partial degradated | complete degradation | complete degradation |  |  | Activity in Her2 degradation relative to Compound 108 (Her2): even more active than Compound 108; effect on body weights [5]: lack of an effect on body weights; toxicity [5]: not associated with significant toxicity; growth rate of MDA-MB-435S cells in nude mice ([5]; compared with 100 mg/kg 17-AAG): decreased the growth rate of MDA-MB-435S cells in nude mice to a greater extent than did a dose of 100 mg/kg body weight of the Hsp90 inhibitor 17-AAG
Oc1ccc(-c2nnc(S)n2-c2cccc3ccccc23)c(O)c1 [Compound 108, 3-(2,4-Dihydroxy-phenyl)-4-(naphthalen-1-yl)-5-mercapto-[1,2,4]triazole] |  |  | partially degradated | partially degradated | almost completely degraded |  |  | ATPase activity of Hsp90 (Hsp90 protein; 4 μM): significant inhibition; ATPase activity of Hsp90 (Hsp90 protein; 40 μM): even greater inhibition of ATPase activity of Hsp90 than geldanamycin
CCc1cc(-c2nnc(S)n2-c2ccc(OC)c3c2ccn3C(C)C)c(O)cc1O [Compound 188, 3-(2,4-Dihydroxy-5-ethyl-phenyl)-4-(1-isopropyl-7-methoxy-indol-4-yl)-5-mercapto-[1,2,4]triazole] | induced c-kit degradation | induced c-kit degradation |  |  |  | induced c-kit degradation | induced c-kit degradation | effect on body weights [2, 6]: minimal effect on body weights; growth rate of RERF-LC-AI^IVP human lung tumor cells in nude mice [2, 6]: decreased the growth rate; maximum tolerated dose in nude mice ([2]; mouse, in vivo, ip): ~200 mg/kg body weight
CC(C)c1cc(-c2nnc(S)n2-c2ccc3c(ccn3C)c2)c(O)cc1O [Compound 221, 3-(2,4-dihydroxy-5-isopropyl-phenyl)-4-(N-methyl-indol-5-yl)-5-mercapto-[1,2,4]triazole] | induced c-kit degradation | induced c-kit degradation |  |  |  | induced c-kit degradation | induced c-kit degradation | degradation of c-Kit (Western blot) (c-kit [1]; 100 nM): induced the degradation of c-Kit; degradation of c-Kit (Western blot) (c-kit [1]; 400 nM): induced the degradation of c-Kit
